Results on three compounds are retold here after US10385103B2, “Cell-permeable (ICP)-SOCS3 recombinant protein and uses thereof” (CELLIVERY THERAPEUTICS, INC., priority 2014, dated 2019).

For one series, the system named is HepG2 cells. Nature of the series: Induction of apoptosis, Annexin V/7-AAD staining. Format: cell-based, human. The procedure:
(§1) AGS cells (gastric carcinoma cell line) (American Type Culture Collection; ATCC) were seeded in a 12-well plate at a density of 1×10^5 cells/well, and then treated with 10 uM of aMTD/SD-fused SOCS3 for 14 hours. Cancer cell death was analyzed by Annexin V analysis. Annexin V/7-Aminoactinomycin D (7-AAD) staining was performed using flow cytometry according to the manufacturer's guidelines (BD Pharmingen, San Diego, Calif., USA). Briefly, cells were washed three times with ice-cold PBS. The cells were then resuspended in 100 μl of binding buffer and incubated with 1 μl of 7-AAD and 1 μl of annexin V-PE for 30 min in the dark at 37° C. Flow cytometric analysis was immediately performed using a guava easyCyte™ 8 Instrument (Merck Millipore, Darmstadt, Germany).
Annexin V/7-Aminoactinomycin D (7-AAD) staining was performed using flow cytometry according to the manufacturer's guidelines (BD Pharmingen, San Diego, Calif., USA). Briefly, 1×10^6 cells were washed three times with ice-cold PBS. The cells were then resuspended in 100 μl of binding buffer and incubated with 1 μl of 7-AAD and 1 μl of […] for 30 min in the dark at 4° C. Flow cytometric analysis was immediately performed using a guava easyCyte™ 8 Instrument (Merck Millipore, Darmstadt, Germany). In this regard, Cisplatin® (IC50: 30 μM) was used as a reference drug.
(§2) The effect of inducing apoptosis of Chang liver cells was measured in the same manner as in Example 11-2, except that as target cell lines, normal Chang liver cells and hepatocellular carcinoma cell lines, Hep3B, HepG2, Huh7, and SK-HEP-1 were used, and as a reference drug, 5-FU® (IC50: 40 μM) was used.

For another series, the system named is Hep3B cells. The series is described as follows: Induction of apoptosis, Annexin V/7-AAD staining. Format: cell-based, human. Particulars: example 20-2. As for the experimental part:
as §1, §2

Series [1] deals with Huh7 cells. The series is described as follows: Induction of apoptosis, Annexin V/7-AAD staining. The conditions noted are these: example 20-2. The series is classed as cell-based, human. As for the experimental part: as §1, §2
Another series deals with SK-Hep-1 cells. The series is described as follows: Induction of apoptosis, Annexin V/7-AAD staining. Particulars: example 20-2. The series is classed as cell-based, human. The procedure:
as §1, §2

Series [2] deals with HCCs (Hep3B, HepG2, Huh7 and SK-HEP-1). Nature of the series: Inhibition of cell cycle progression (PI staining, flow cytometry). The series is classed as cell-based, human. Particulars: reference drugs. As for the experimental part: To further determine the effect of iCP-SOCS3 on the tumorigenicity of hepatocellular carcinoma cells, we subsequently investigated whether iCP-SOCS3 regulates cell cycle progression in HCCs (Hep3B, HepG2, Huh7 and SK-HEP-1).
HCCs and normal cells were treated with 10 uM protein (Non-CP-SOCS3 (HS3B) and iCP-SOSC3 (HM165S3B)) for 8 hrs. After the treatment, cells were washed twice with cold PBS and re-suspended in 1 ml cold PBS, fixed in cold 70% ethanol, washed with cold PBS twice and re-suspended in PI master mix (PI 10 ug/ml (SIGMA, USA), 50 ug/ml RNase A (Invitrogen, USA) in staining buffer) at a final cell density of 2×10^5 cell/ml. The cell mixtures were incubated 30 min in the dark at 4° C. Flow cytometric analysis was immediately performed using a guava easyCyte™ 8 Instrument (Merck Millipore, Darmstadt, Germany).

For series [3] the following is noted: read-out: IC50 (stated for reference drug); cited from earlier work.
The subject of series [4] is Huh7 cells. Nature of the series: Induction of apoptosis, TUNEL assay. Format: cell-based, human. The conditions noted are these: 10 μM, 24 hr, 2% fetal bovine serum. As for the experimental part:
Apoptotic cells were analyzed using terminal dUTP nick-end labeling (TUNEL) assay with In Situ Cell Death Detection kit TMR red (Roche, 4056 Basel, Switzerland). Cells were treated for 24 hr with 10 μM HS3B or HM165S3B proteins with 2% fetal bovine serum and apoptotic cells were visualized by TUNEL staining. Treated cells were washed with cold PBS two times, fixed in 4% paraformaldehyde (PFA, Junsei, Tokyo, Japan) for 1 hr at room temperature, and incubated in 0.1% Triton X-100 for 2 min on the ice. Cells were washed with cold PBS twice, and treated TUNEL reaction mixture for 1 hr at 37° C. in dark, washed cold PBS three times and observed by fluorescence microscopy (Nikon, Tokyo, Japan). Cisplatin® (IC50: 30 μM) was used for reference drug.

A further series has as its system HepG2 tumor. The series is described as follows: Anti-tumor activity in cell-derived xenograft model. The conditions noted are these: iCP-SOCS3 IV 50 mg/kg every day; Cisplatin IP 4 mg/kg twice a week; 3 weeks.
The next series concerns RAW 264.7 cells. Nature of the series: Quantitative cell-permeability of FITC-labeled aMTD- or rPeptide-fused CRA recombinant proteins (flow cytometry). The conditions noted are these: RAW 264.7 cells, 10 μM FITC-labeled recombinant protein, 1 hour. Format: cell-based. An outline of the steps: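 RAW 264.7 cells were exposed to 10 μM FITC-labeled recombinant proteins, consisting of a non-functional cargo fused to aMTD or rPeptide sequences, for 1 hour at 37° C. Cells were washed three times in cold PBS and treated with 0.25% tripsin/EDTA for 20 minutes at 37° C. to strip surface-bound protein, then uptake was measured by flow cytometry.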
For orientation: A flow cytometer gives signals particle by particle.

In the next series the test system is NIH3T3 cells. The series is described as follows: Intracellular delivery and localization of aMTD-/rPeptide-fused CRA recombinant proteins (confocal laser scanning microscopy). The series is classed as cell-based, mouse. Particulars: 10 μM FITC-labeled protein, 1 hour, 37. As for the experimental part: NIH3T3 cells were exposed to 10 μM of FITC-labeled protein for 1 hour at 37, and nuclei were counterstained with DAPI. Then, cells were examined by confocal laser scanning microscopy (FIG. 7). […] The intracellular localization of the fluorescent signal was determined by confocal laser scanning microscopy (LSM700, Zeiss, Germany; FIGS. 7 and 8).

Protocol for HepG2 tumor: Female Balb/c^nu/nu mice (5-week-old, Doo-Yeol Biotech Co. Ltd. Korea) were subcutaneously implanted with Hep3B2.1-7 tumor block (1 mm^3) into the left back side of the mouse. […] Tumor size was monitored by measuring the longest (length) and shortest dimensions (width) once a day with a dial caliper, and tumor volume was calculated as width2×length×0.5.
Then, tumor volumes were examined. […] Then, tumor volumes were examined.

For `O=c1[nH]cc(F)c(=O)[nH]1` [5-FU, reference compound], the “induction of apoptosis (Annexin V), HepG2” value with HepG2 cells (example 20-2) was “hardly induced apoptosis”. For the same compound, the “induction of apoptosis (Annexin V), Hep3B” value in the series on Hep3B cells was “hardly induced apoptosis”. Further, the “induction of apoptosis (Annexin V), Huh7” value with Huh7 cells [1] was “hardly induced apoptosis”. In addition, the “induction of apoptosis (Annexin V), SK-HEP-1” value with SK-Hep-1 cells was “hardly induced apoptosis”. The “amount of subG1” value in [2] was “hardly increased the amount of subG1”. Further, the concentration for half-maximal inhibition (IC50) in [3] is 40 µM.
Regarding `N.N.[Cl][Pt][Cl]` [Cisplatin, reference compound], the “induction of apoptosis (Annexin V), HepG2, dose dependence” value in the series on HepG2 cells (example 20-1) is “hardly induced apoptosis”. Moreover, in the series on Huh7 cells [4], the “induction of apoptosis (TUNEL), Huh7” value is on record as “hardly induced apoptosis”. Further, in series [2], the “amount of subG1” value is “hardly increased the amount of subG1”. Also, in series [3], the IC50 is 30 µM. The “body weight / adverse effects” value in the series with HepG2 tumor was “remarkable weight loss”.
On to YYNQSTCGGQCY [rP38, reference compound], for which the “Relative Ratio to aMTD AVE” value in the series with RAW 264.7 cells was found to be 0.3±0.04 fold. Also, in the series with NIH3T3 cells, the “intracellular delivery and localization (internalized fluorescence signal)” value is on record as “did not show internalized fluorescence signal”.

One may read the IC50 as the concentration that gives 50% inhibition.
